Measurements: PubChem BioAssay AID1963867 (Molecular Pharmacology Branch, DTP, NCI, 2024)
pIC50: −log10 of the molar value. Values joined by “and” are separate entries in the source; they are usually repeats but may differ in a detail not shown here. Equal entries are not always repeated.

Tested on: KRAS-mutant PDC tumor spheroid with HUVEC/MSC, viability
Experiment: Anticancer human tumor 327498-153-R-J2-PDC patient-derived uterine carcinosarcoma cell line growth inhibition [KRAS2]
Details: for viability, T/C: stronger effect = lower value
Summary of the method: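 Combination screen of spheroid viability in tumor-cell co-cultures with endothelial (HUVEC) and mesenchymal stem cell stroma. Each agent was tested in half-log dilutions, topping at clinical Cmax or at 10 microM without a known Cmax.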

[1] = curve of first compound, second compound 0.1 µM
[2] = curve of first compound, second compound 0.316 µM
[3] = curve of first compound, second compound 1 µM
[4] = curve of first compound, second compound 3.16 µM
[5] = curve of first compound, second compound 10 µM
[6] = second compound 0.1 µM, first compound 0.0316 µM
[7] = second compound 0.1 µM, first compound 0.1 µM
[8] = second compound 0.1 µM, first compound 0.316 µM
[9] = second compound 0.1 µM, first compound 1 µM
[10] = second compound 0.1 µM, first compound 3.16 µM
[11] = second compound 0.1 µM, first compound 10 µM
[12] = second compound 0.316 µM, first compound 0.0316 µM
[13] = second compound 0.316 µM, first compound 0.1 µM
[14] = second compound 0.316 µM, first compound 0.316 µM
[15] = second compound 0.316 µM, first compound 1 µM
[16] = second compound 0.316 µM, first compound 3.16 µM
[17] = second compound 0.316 µM, first compound 10 µM
[18] = second compound 1 µM, first compound 0.0316 µM
[19] = second compound 1 µM, first compound 0.1 µM
[20] = second compound 1 µM, first compound 0.316 µM
[21] = second compound 1 µM, first compound 1 µM
[22] = second compound 1 µM, first compound 3.16 µM
[23] = second compound 1 µM, first compound 10 µM
[24] = second compound 3.16 µM, first compound 0.0316 µM
[25] = second compound 3.16 µM, first compound 0.1 µM
[26] = second compound 3.16 µM, first compound 0.316 µM
[27] = second compound 3.16 µM, first compound 1 µM
[28] = second compound 3.16 µM, first compound 3.16 µM
[29] = second compound 3.16 µM, first compound 10 µM
[30] = second compound 10 µM, first compound 0.0316 µM
[31] = second compound 10 µM, first compound 0.1 µM
[32] = second compound 10 µM, first compound 0.316 µM
[33] = second compound 10 µM, first compound 1 µM
[34] = second compound 10 µM, first compound 3.16 µM
[35] = second compound 10 µM, first compound 10 µM
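Note: spheroids exposed to agents for seven days before reading.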
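Throughout, for viability, T/C: 100% = DMSO vehicle wells so lower means fewer viable cells.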

Compound	pIC50 [1]	pIC50 [2]	pIC50 [3]	pIC50 [4]	pIC50 [5]	viability, T/C [6] [%]	viability, T/C [7] [%]	viability, T/C [8] [%]	viability, T/C [9] [%]	viability, T/C [12] [%]	viability, T/C [13] [%]	viability, T/C [14] [%]	viability, T/C [15] [%]	viability, T/C [18] [%]	viability, T/C [19] [%]	viability, T/C [20] [%]	viability, T/C [21] [%]	viability, T/C [24] [%]	viability, T/C [25] [%]	viability, T/C [26] [%]	other results
O=C(c1cc(Cc2n[nH]c(=O)c3ccccc23)ccc1F)N1CCN(C(=O)C2CC2)CC1 + CNCc1ccccc1-c1csc(C(C)Nc2nc(C)nc3cc(OC)c(OC)cc23)c1	5.69	5.74	5.76	6.39	> 7.50	83.4	80.3	82.8	73.6	86.6	87.4	76.7	69.5	90.8	81.8	81.3	66.3	57.7	67.8	62	viability, T/C [10]: 36.1%; viability, T/C [11]: 19.2%; viability, T/C [16]: 32.4%; viability, T/C [17]: 19.1%; viability, T/C [22]: 33.2%; viability, T/C [23]: 19.1%; viability, T/C [27]: 0.7%; viability, T/C [28]: 25.9%; viability, T/C [29]: 0.17%; viability, T/C [30]: 2.32%; viability, T/C [31]: 0.2%; viability, T/C [32]: 1.62%; viability, T/C [33]: 0.19%; viability, T/C [34]: 0.15%; viability, T/C [35]: 1.22%
C=CC(=O)N1CCN(c2nc(=O)n(-c3c(C)ccnc3C(C)C)c3nc(-c4c(O)cccc4F)c(F)cc23)C(C)C1 (stereo unspecified)	–	–	–	–	–	–	–	–	–	–	–	–	–	–	–	–	–	–	–	–	pIC50 (compound alone, run of 07/12/2021): < 5.00 and 5.88 and 5.91
CCN1CCN(Cc2ccc(Nc3ncc(F)c(-c4cc(F)c5nc(C)n(C(C)C)c5c4)n3)nc2)CC1 + COc1cc2nc(C)nc(NC(C)c3cc(N)cc(C(F)(F)F)c3)c2cc1OC1CCOC1	7.97	8.16	> 8.50	8.35	> 8.50	42.6	40	40	49.2	33.2	35.9	36.6	41.2	33	30	39.5	42.8	31	29.9	34.6	viability, T/C (second compound 0.1 µM, first compound 0.00316 µM): 65.4%; viability, T/C (second compound 0.1 µM, first compound 0.01 µM): 52.8%; viability, T/C (second compound 0.316 µM, first compound 0.00316 µM): 61%; viability, T/C (second compound 0.316 µM, first compound 0.01 µM): 48%; viability, T/C (second compound 1 µM, first compound 0.00316 µM): 51.8%; viability, T/C (second compound 1 µM, first compound 0.01 µM): 37.8%; viability, T/C (second compound 3.16 µM, first compound 0.00316 µM): 56.4%; viability, T/C (second compound 3.16 µM, first compound 0.01 µM): 34.5%; viability, T/C [27]: 31.3%; viability, T/C (second compound 10 µM, first compound 0.00316 µM): 45.4%; viability, T/C (second compound 10 µM, first compound 0.01 µM): 28.9%; viability, T/C [30]: 29.2%; viability, T/C [31]: 26.9%; viability, T/C [32]: 20.3%; viability, T/C [33]: 0.34%
CCNC(=O)CC1N=C(c2ccc(Cl)cc2)c2cc(OC)ccc2-n2c(C)nnc21 (stereo unspecified) + CNCc1ccccc1-c1csc(C(C)Nc2nc(C)nc3cc(OC)c(OC)cc23)c1	5.86	6.32	6.42	> 7.50	> 7.50	88	76.8	59	55.8	69.5	69.6	53.4	41	77.6	64	52.6	40.3	1.88	1.54	0.18	viability, T/C [10]: 43.4%; viability, T/C [11]: 34%; viability, T/C [16]: 36.3%; viability, T/C [17]: 29.8%; viability, T/C [22]: 33.1%; viability, T/C [23]: 28%; viability, T/C [27]: 1.98%; viability, T/C [28]: 0.12%; viability, T/C [29]: 0.21%; viability, T/C [30]: 1.35%; viability, T/C [31]: 1.7%; viability, T/C [32]: 0.26%; viability, T/C [33]: 0.21%; viability, T/C [34]: 0.2%; viability, T/C [35]: 0.28%
